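Where inhibition never reached the appropriate level, the endpoint shown equals the highest concentration tested. Otherwise, values were interpolated linearly from a five-concentration, 48-hour dose response in 96-well plates. GI50 is the concentration that inhibits growth by half.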 Calls of active or inactive are those of the source. Rule as the data show it: active = GI50 up to about 1.1 µM and inactive = higher.
How the values were obtained:
Experiment in all cases: DTP human tumour cell line panel, 48 h
786-0 = test system: 786-0
A498 = test system: A498
A549 = test system: A549
ACHN = test system: ACHN
BT-549 = test system: BT-549
CAKI-1 = test system: CAKI-1
CCRF-CEM = test system: CCRF-CEM
COLO 205 = test system: COLO 205
DU-145 = test system: DU-145
EKVX = test system: EKVX
HCC 2998 = test system: HCC 2998
HCT-116 = test system: HCT-116
HCT-15 = test system: HCT-15
HL-60 = test system: HL-60
HOP-62 = test system: HOP-62
HT-29 = test system: HT-29
Hs-578T = test system: Hs-578T
IGROV-1 = test system: IGROV-1
K562 = test system: K562
KM12 = test system: KM12
LOX IMVI = test system: LOX IMVI
M14 = test system: M14
MCF7 = test system: MCF7
MDA-MB-231 = test system: MDA-MB-231
MDA-MB-435 = test system: MDA-MB-435
MDA-N = test system: MDA-N
MOLT-4 = test system: MOLT-4
Malme-3M = test system: Malme-3M
NCI-H226 = test system: NCI-H226
NCI-H23 = test system: NCI-H23
NCI-H460 = test system: NCI-H460
NCI-H522 = test system: NCI-H522
NCI/ADR-RES = test system: NCI/ADR-RES
OVCAR-3 = test system: OVCAR-3
OVCAR-5 = test system: OVCAR-5
OVCAR-8 = test system: OVCAR-8
PC-3 = test system: PC-3
RPMI-8226 = test system: RPMI-8226
SF-268 = test system: SF-268
SF-295 = test system: SF-295
SF-539 = test system: SF-539
SK-MEL-28 = test system: SK-MEL-28
SK-MEL-2 = test system: SK-MEL-2
SK-MEL-5 = test system: SK-MEL-5
SK-OV-3 = test system: SK-OV-3
SN12C = test system: SN12C
SNB-19 = test system: SNB-19
SNB-75 = test system: SNB-75
SR = test system: SR
SW-620 = test system: SW-620
T47D = test system: T47D
TK-10 = test system: TK-10
U-251 = test system: U-251
UACC-257 = test system: UACC-257
UACC-62 = test system: UACC-62
UO-31 = test system: UO-31
HOP-92 = test system: HOP-92
OVCAR-4 = test system: OVCAR-4
RXF 393 = test system: RXF 393

C=C[C@]1(C)CC[C@]2(C)C(CC[C@@]3(C)C2C[C@H](O)[C@H](O)[C@@]3(C)O)C1 (stereo partly drawn)
GI50 (786-0): > 100 µM (inactive)
GI50 (A498): > 100 µM (inactive)
GI50 (A549): > 100 µM (inactive)
GI50 (ACHN): > 100 µM (inactive)
GI50 (BT-549): > 100 µM (inactive)
GI50 (CAKI-1): > 100 µM (inactive)
GI50 (CCRF-CEM): > 100 µM (inactive)
GI50 (COLO 205): > 100 µM (inactive)
GI50 (DU-145): > 100 µM (inactive)
GI50 (EKVX): > 100 µM (inactive)
GI50 (HCC 2998): > 100 µM (inactive)
GI50 (HCT-116): > 100 µM (inactive)
GI50 (HCT-15): > 100 µM
GI50 (HL-60): > 100 µM (inactive)
GI50 (HOP-62): > 100 µM (inactive)
GI50 (HT-29): > 100 µM (inactive)
GI50 (Hs-578T): > 100 µM (inactive)
GI50 (IGROV-1): > 100 µM (inactive)
GI50 (K562): > 100 µM (inactive)
GI50 (KM12): > 100 µM (inactive)
GI50 (LOX IMVI): > 100 µM (inactive)
GI50 (M14): > 100 µM (inactive)
GI50 (MCF7): > 100 µM (inactive)
GI50 (MDA-MB-231): > 100 µM (inactive)
GI50 (MDA-MB-435): > 100 µM (inactive)
GI50 (MDA-N): > 100 µM (inactive)
GI50 (MOLT-4): > 100 µM (inactive)
GI50 (Malme-3M): > 100 µM (inactive)
GI50 (NCI-H226): > 100 µM (inactive)
GI50 (NCI-H23): > 100 µM (inactive)
GI50 (NCI-H460): > 100 µM (inactive)
GI50 (NCI-H522): > 100 µM (inactive)
GI50 (NCI/ADR-RES): > 100 µM (inactive)
GI50 (OVCAR-3): > 100 µM (inactive)
GI50 (OVCAR-5): > 100 µM (inactive)
GI50 (OVCAR-8): > 100 µM (inactive)
GI50 (PC-3): > 100 µM (inactive)
GI50 (RPMI-8226): > 100 µM (inactive)
GI50 (SF-268): > 100 µM (inactive)
GI50 (SF-295): > 100 µM (inactive)
GI50 (SF-539): > 100 µM (inactive)
GI50 (SK-MEL-28): > 100 µM (inactive)
GI50 (SK-MEL-2): > 100 µM (inactive)
GI50 (SK-MEL-5): > 100 µM (inactive)
GI50 (SK-OV-3): > 100 µM (inactive)
GI50 (SN12C): > 100 µM (inactive)
GI50 (SNB-19): > 100 µM (inactive)
GI50 (SNB-75): > 100 µM (inactive)
GI50 (SR): > 100 µM (inactive)
GI50 (SW-620): > 100 µM (inactive)
GI50 (T47D): > 100 µM (inactive)
GI50 (TK-10): > 100 µM (inactive)
GI50 (U-251): > 100 µM (inactive)
GI50 (UACC-257): > 100 µM (inactive)
GI50 (UACC-62): > 100 µM (inactive)
GI50 (UO-31): > 100 µM (inactive)

Cc1nn(C(=O)c2ccc(Cl)cc2)c2c1C(c1ccc([N+](=O)[O-])cc1)SC(=N)N2 (stereo not drawn)
GI50 (786-0): > 10 µM (inactive)
GI50 (A549): > 10 µM (inactive)
GI50 (ACHN): > 10 µM (inactive)
GI50 (BT-549): > 10 µM (inactive)
GI50 (CAKI-1): > 10 µM (inactive)
GI50 (CCRF-CEM): > 10 µM (inactive)
GI50 (COLO 205): > 10 µM (inactive)
GI50 (DU-145): > 10 µM (inactive)
GI50 (EKVX): > 10 µM (inactive)
GI50 (HCC 2998): > 10 µM (inactive)
GI50 (HCT-116): > 10 µM (inactive)
GI50 (HCT-15): > 10 µM
GI50 (HL-60): > 10 µM (inactive)
GI50 (HOP-62): > 10 µM (inactive)
GI50 (HOP-92): > 10 µM (inactive)
GI50 (HT-29): > 10 µM (inactive)
GI50 (Hs-578T): > 10 µM (inactive)
GI50 (IGROV-1): > 10 µM (inactive)
GI50 (K562): > 10 µM (inactive)
GI50 (KM12): > 10 µM (inactive)
GI50 (LOX IMVI): > 10 µM (inactive)
GI50 (M14): > 10 µM (inactive)
GI50 (MCF7): > 10 µM (inactive)
GI50 (MDA-MB-231): > 10 µM (inactive)
GI50 (MDA-MB-435): > 10 µM (inactive)
GI50 (MDA-N): > 10 µM (inactive)
GI50 (MOLT-4): > 10 µM (inactive)
GI50 (Malme-3M): > 10 µM (inactive)
GI50 (NCI-H226): > 10 µM (inactive)
GI50 (NCI-H23): > 10 µM (inactive)
GI50 (NCI-H460): > 10 µM (inactive)
GI50 (NCI-H522): > 10 µM (inactive)
GI50 (NCI/ADR-RES): > 10 µM (inactive)
GI50 (OVCAR-3): > 10 µM (inactive)
GI50 (OVCAR-4): > 10 µM (inactive)
GI50 (OVCAR-5): > 10 µM (inactive)
GI50 (OVCAR-8): > 10 µM (inactive)
GI50 (PC-3): > 10 µM (inactive)
GI50 (RPMI-8226): > 10 µM (inactive)
GI50 (RXF 393): > 10 µM (inactive)
GI50 (SF-268): > 10 µM (inactive)
GI50 (SF-295): > 10 µM (inactive)
GI50 (SF-539): > 10 µM (inactive)
GI50 (SK-MEL-28): > 10 µM (inactive)
GI50 (SK-MEL-2): > 10 µM (inactive)
GI50 (SK-MEL-5): > 10 µM (inactive)
GI50 (SK-OV-3): > 10 µM (inactive)
GI50 (SN12C): > 10 µM (inactive)
GI50 (SNB-19): > 10 µM (inactive)
GI50 (SNB-75): > 10 µM (inactive)
GI50 (SR): > 10 µM (inactive)
GI50 (SW-620): > 10 µM (inactive)
GI50 (T47D): > 10 µM (inactive)
GI50 (TK-10): > 10 µM (inactive)
GI50 (U-251): > 10 µM (inactive)
GI50 (UACC-257): > 10 µM (inactive)
GI50 (UACC-62): > 10 µM (inactive)

Source: ChEMBL document CHEMBL1201862, “PubChem BioAssay data set” (2004)
